Consider 16 molecules from ChEMBL document CHEMBL3763057 (J Med Chem, 2016).

Data set [1] in a line: Permeability of the compound by PAMPA-BBB assay. The data set is classed as ADME. Conditions: read-out: permeability.
A short description of data set [2]: Cytotoxicity against human T67 cells up to 20 uM after 24 hrs by MTT assay. Conditions: t67, 24 h. The data set is classed as cell-based.
Data set [3] has as its system T67. Put plainly: Neuroprotective effect in human T67 cells assessed as increase in NQO1 activity using DCIP as substrate. The data set is classed as functional, cell-based.
Data set [4] concerns the target Glycogen synthase kinase-3 beta (Homo sapiens, UniProt P49841). The data set can be described thus: Inhibition of human recombinant GSK3-beta using prephosphorylated polypeptide as substrate incubated for 30 mins by Glo-type luminescence assay.
Data set [5] can be described thus: Cytotoxicity against human T67 cells at 10 uM after 24 hrs by MTT assay. The data set is classed as cell-based. As to conditions: t67, 24 h.
Data set [6] in a line: Chemical stability of the compound in phosphate and borate buffer at pH 7.4 and 9.2 incubated for 3 days by RP-HPLC analysis. Conditions: pH 7.4, 72 h. The format is physicochemical.
The target in another data set is Beta-secretase 1 (Homo sapiens, UniProt P56817). The data set can be described thus: Inhibition of human recombinant BACE1 using M-2420 as substrate preincubated for 1 hr followed by substrate addition incubated for 15 mins by FRET assay.
Chain of Beta-secretase 1 (P56817 whole entry): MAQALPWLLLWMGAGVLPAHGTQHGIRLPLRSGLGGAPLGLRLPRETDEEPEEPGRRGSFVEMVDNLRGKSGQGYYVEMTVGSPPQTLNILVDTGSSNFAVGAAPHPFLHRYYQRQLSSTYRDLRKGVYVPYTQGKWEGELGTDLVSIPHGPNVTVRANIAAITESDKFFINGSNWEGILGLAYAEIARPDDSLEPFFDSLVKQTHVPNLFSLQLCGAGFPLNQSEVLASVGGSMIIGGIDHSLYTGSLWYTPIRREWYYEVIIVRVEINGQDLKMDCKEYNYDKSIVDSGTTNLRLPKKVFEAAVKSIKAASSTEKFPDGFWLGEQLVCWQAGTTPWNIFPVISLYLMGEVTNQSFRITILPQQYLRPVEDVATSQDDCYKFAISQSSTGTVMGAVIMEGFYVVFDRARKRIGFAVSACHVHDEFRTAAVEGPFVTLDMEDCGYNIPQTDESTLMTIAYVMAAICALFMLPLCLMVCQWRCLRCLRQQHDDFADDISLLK
The subject of data set [7] is T67. Put plainly: Neuroprotective effect in human T67 cells assessed as inhibition of TBH-induced ROS formation at 10 uM after 30 mins by DCFH-DA fluorescent probe-based spectrofluorimetric analysis. The data set is classed as functional, cell-based.
Data set [8] is described as follows: Chemical stability of the compound in phosphate and borate buffer assessed as formation of degradation product at pH 7.4 and 9.2 incubated for 3 days by RP-HPLC analysis. As to conditions: pH 7.4, 72 h. The data set is classed as physicochemical.
Data set [9] in a line: Cytotoxicity against human T67 cells at 20 uM after 24 hrs by MTT assay. The format is cell-based. As to conditions: t67, 24 h.

Active and inactive are the calls of the source. The calls are words filed in the database; no cut-off is given here. A value given as a limit tells only on which side of the number the result lay.

Chain of Glycogen synthase kinase-3 beta (P49841 whole entry): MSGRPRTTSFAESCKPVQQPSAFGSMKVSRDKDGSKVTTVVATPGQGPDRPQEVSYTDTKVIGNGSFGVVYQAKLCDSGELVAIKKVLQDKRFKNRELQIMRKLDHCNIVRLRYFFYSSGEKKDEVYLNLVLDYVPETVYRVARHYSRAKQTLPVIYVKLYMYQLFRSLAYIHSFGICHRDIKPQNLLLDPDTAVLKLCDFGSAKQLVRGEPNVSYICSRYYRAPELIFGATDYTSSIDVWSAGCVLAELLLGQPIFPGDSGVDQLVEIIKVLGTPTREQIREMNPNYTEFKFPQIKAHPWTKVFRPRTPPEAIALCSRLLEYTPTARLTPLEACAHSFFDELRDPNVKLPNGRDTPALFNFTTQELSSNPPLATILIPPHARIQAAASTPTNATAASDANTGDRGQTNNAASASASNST

On to `COc1cc(/C=C/C(=O)CC(=O)/C=C/c2ccc(O)c(OC)c2)ccc1O` [CURCUMIN], for which the Papp in data set [1] came out at 2.5 ×10⁻⁶ cm/s. Besides, the Activity entry in [2] was “Non-toxic”. Moreover, in the data set on T67 [3], the result was Active. In data set [4], the IC50 is 17.9 µM.
Regarding `COc1ccc(/C=C/C(=O)/C=C(O)/C=C/c2ccc(OC)cc2)cc1`, the Papp in [1] was found to be 2.8 ×10⁻⁶ cm/s. Moreover, the Activity entry in [5] is on record as “Non-toxic”. Further, the Stability result in data set [6] was “Stable”. In addition, the results for the IC50 (on Beta-secretase 1; in [4]) were 1650 nM and 0.53 µM, respectively. Further, in the data set on T67 [3], the result was Active. The outcome with T67 [7] was inactive.
On to `O=C(/C=C/c1ccc(OCc2cc(F)cc(F)c2)cc1)CC(=O)/C=C/c1ccc(OCc2cc(F)cc(F)c2)cc1`, for which the figures for the IC50 (at Beta-secretase 1; in data set [4]) were 730 nM and 9.66 µM, respectively.
Take `O=C(/C=C(O)/C=C/c1ccc(OCc2ccccc2)cc1)/C=C/c1ccc(O)cc1`: the Activity entry in data set [2] is listed as “Toxic”. Besides, the IC50 on Beta-secretase 1 is 2690 nM; in data set [4], 2.01 µM. Besides, the result in the data set on T67 [3] was Active. The result in the data set on T67 [7] was inactive.
In the case of `O=C(/C=C/c1ccc(OCc2ccccc2)cc1)CC(=O)/C=C/c1ccc(OCc2ccccc2)cc1`, the IC50 at Beta-secretase 1 amounted to 6040 nM; in [4] it was 5.56 µM.
As to `COc1ccc(/C=C/C(=O)/C=C(O)/C=C/c2ccc(OCc3ccccc3)cc2)cc1`, the Papp in data set [1] turned out to be 7 ×10⁻⁶ cm/s. Besides, the Activity entry in [2] and in data set [5] was “Non-toxic” in each case. Moreover, the results for the IC50 (on Beta-secretase 1; in [4]) were 2280 nM and 2.78 µM, respectively. Besides, the outcome in the data set with T67 [3] was Active. Also, in the data set with T67 [7], the result was inactive.
As to `O=C(/C=C(O)/C=C/c1ccc(OCc2ccc(F)cc2F)cc1)/C=C/c1ccc(OCc2ccc(F)cc2F)cc1`, the IC50 is 400 nM on Beta-secretase 1 and 9.63 µM in [4].
For the molecule `COc1ccc(/C=C/C(=O)CC(=O)/C=C/c2ccc(OC)cc2)cc1`, the IC50 at Beta-secretase 1 was greater than 5000 nM; in data set [4], 15.3 µM. Further, the Stability entry in data set [8] was “Unstable”.
Turning to `O=C(/C=C(O)/C=C/c1ccc(OCc2cc(F)cc(F)c2)cc1)/C=C/c1ccc(OCc2cc(F)cc(F)c2)cc1`, the IC50 on Beta-secretase 1 was 390 nM; in data set [4] it was 8.3 µM.
The matching figures for `O=C(/C=C(O)/C=C/c1ccc(OCc2ccc(F)cc2)cc1)/C=C/c1ccc(OCc2ccc(F)cc2)cc1`: 1040 nM and 12.8 µM.
Consider `O=C(/C=C(O)/C=C/c1ccc(OCc2ccccc2)cc1)/C=C/c1ccc(OCc2ccccc2)cc1`, for which the Papp in data set [1] was found to be 3.6 ×10⁻⁶ cm/s. Further, in data set [2], the Activity entry is “Non-toxic”. The IC50 at Beta-secretase 1 was found to be 40 nM; in data set [4], 2.49 µM. In addition, the result in the data set on T67 [3] and with T67 [7] was Active.
`O=C(/C=C/c1ccc(OCc2ccc(F)cc2F)cc1)CC(=O)/C=C/c1ccc(OCc2ccc(F)cc2F)cc1`: the concentration for half-maximal inhibition (IC50) at Beta-secretase 1 turned out to be 1000 nM; in [4] it was 9.06 µM.
The matching figures for `O=C(/C=C(O)/C=C/c1ccc(OCc2cccc(F)c2)cc1)/C=C/c1ccc(OCc2cccc(F)c2)cc1`: 1080 nM and 17 µM.
For `COc1cc(/C=C/C(O)=C/C(=O)/C=C/c2ccc(OCc3ccccc3)cc2)ccc1O`, the Papp in data set [1] is 7.7 ×10⁻⁶ cm/s. In addition, the Activity entry in [2] was “Non-toxic”. The IC50 on Beta-secretase 1 worked out at 970 nM; in data set [4], 0.9 µM. Also, the result with T67 [3] and in the data set with T67 [7] was Active.
For the molecule `O=C(/C=C(O)/C=C/c1ccc(O)cc1)/C=C/c1ccc(O)cc1`, the Papp in [1] was 7.8 ×10⁻⁶ cm/s. The Activity result is given as “Toxic” in data set [9] and “Non-toxic” in data set [5]. Besides, in the data set with T67 [3], the outcome was Active. For the same molecule, the result in the data set on T67 [7] was inactive. Further, the IC50 in [4] worked out at 8.39 µM.
As for `COc1cc(/C=C/C(O)=C/C(=O)/C=C/c2ccc(C)cc2)ccc1O`, the Papp in data set [1] was determined as 8.2 ×10⁻⁶ cm/s. Also, the Activity entry in [2] was “Non-toxic”. The results for the IC50 (at Beta-secretase 1; in data set [4]) were 140 nM and 2.09 µM, respectively. Moreover, in the data set on T67 [3], the result was Active. Besides, the outcome in the data set on T67 [7] was inactive.
